Laboratory results published in US11008282B2, “Bicyclic-compounds for use as a medicament, in particular for treatment of parkinson's disease” (CAPROTEC BIOANALYTICS GMBH, priority 2015, dated 2021).
pIC50: −log10 of the molar value. Entries after “also recorded” stand apart in the source; their conditions may differ. Like-named read-outs stand apart in the source and are kept apart here.

Key:
GCDH = target: T1, GCDH (Homo sapiens, UniProt Q92947); experiment: CCMS differential competition, HepG2 lysate, active capture compound CPT-224; assay type: binding; conditions: CPT-224 1 μM; for Fc: fold change assay vs competition, 50 μM competitor; for MS/MS: with 50 μM competitor, HepG2 lysate
T1 construct: performing CCMS experiments in the hepatoma-derived cell line HepG2; host or cells: HepG2 lysate
T1 sequence (Q92947 45-438): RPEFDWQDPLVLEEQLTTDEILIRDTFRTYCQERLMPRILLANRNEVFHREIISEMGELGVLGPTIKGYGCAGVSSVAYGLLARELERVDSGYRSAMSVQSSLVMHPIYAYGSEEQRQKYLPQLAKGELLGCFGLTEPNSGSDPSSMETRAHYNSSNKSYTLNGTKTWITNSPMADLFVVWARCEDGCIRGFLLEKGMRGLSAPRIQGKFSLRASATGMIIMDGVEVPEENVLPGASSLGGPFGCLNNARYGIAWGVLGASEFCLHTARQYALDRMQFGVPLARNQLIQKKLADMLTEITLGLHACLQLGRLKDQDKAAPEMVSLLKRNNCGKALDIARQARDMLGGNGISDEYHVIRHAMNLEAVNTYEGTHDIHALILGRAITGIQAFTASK

ADI1 = target: T2, ADI1 (Homo sapiens, UniProt Q9BV57); experiment: as above; assay type: binding; conditions: CPT-224 1 μM; for Fc: fold change assay vs competition, 50 μM competitor; for MS/MS: with 50 μM competitor, HepG2 lysate
T2 construct: performing CCMS experiments in the hepatoma-derived cell line HepG2; host or cells: HepG2 lysate
T2 sequence (Q9BV57 1-179): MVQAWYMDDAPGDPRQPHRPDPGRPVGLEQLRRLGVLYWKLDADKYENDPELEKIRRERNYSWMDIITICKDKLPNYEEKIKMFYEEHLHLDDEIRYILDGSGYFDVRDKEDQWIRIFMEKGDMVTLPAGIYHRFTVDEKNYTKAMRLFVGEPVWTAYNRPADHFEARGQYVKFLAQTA

CCBL2 = target: T3, CCBL2 (Homo sapiens, UniProt Q6YP21); experiment: as above; assay type: binding; conditions: CPT-224 1 μM; for Fc: fold change assay vs competition, 50 μM competitor; for MS/MS: with 50 μM competitor, HepG2 lysate
T3 construct: performing CCMS experiments in the hepatoma-derived cell line HepG2; host or cells: HepG2 lysate

COMT [1] = target: T4, COMT (Homo sapiens, UniProt P21964); experiment: COMT activity microplate assay (aesculetin methylation, fluorometric); assay type: biochemical
T4 construct: His; host or cells: E. coli BL21
T4 sequence (P21964 1-221 isoform P21964-2): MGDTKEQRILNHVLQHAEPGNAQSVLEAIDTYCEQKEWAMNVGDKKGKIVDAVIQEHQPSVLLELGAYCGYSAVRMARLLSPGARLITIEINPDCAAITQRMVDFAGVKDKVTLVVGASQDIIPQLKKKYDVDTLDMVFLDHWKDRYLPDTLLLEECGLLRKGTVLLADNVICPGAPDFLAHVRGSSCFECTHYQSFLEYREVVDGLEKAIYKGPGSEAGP

COMT [2] = target: T4, COMT; experiment: Capture assay with CPT-224 followed by anti-COMT / streptavidin Western Blot; assay type: binding; conditions: for competition of COMT capturing (anti-COMT Western Blot): active capture compound, competitor; for competition of crosslinking of COMT with CPT-224 (anti-Streptavidin Western Blot): recombinant COMT
HIBCH [3] = target: T5, HIBCH (Homo sapiens, UniProt Q6NVY1); experiment: dCCMS and dose-dependent capturing, HepG2 lysate; assay type: binding; design: performing CCMS experiments in the hepatoma-derived cell line HepG2; host or cells: HepG2 lysate; conditions: for competition of HIBCH capture (dCCMS): CPT-224 1 μM, competitor 50 μM, HepG2 lysate; for binding to HIBCH: dCCMS (FIG. 5, FIG. 6)
T5 sequence (Q6NVY1 33-386): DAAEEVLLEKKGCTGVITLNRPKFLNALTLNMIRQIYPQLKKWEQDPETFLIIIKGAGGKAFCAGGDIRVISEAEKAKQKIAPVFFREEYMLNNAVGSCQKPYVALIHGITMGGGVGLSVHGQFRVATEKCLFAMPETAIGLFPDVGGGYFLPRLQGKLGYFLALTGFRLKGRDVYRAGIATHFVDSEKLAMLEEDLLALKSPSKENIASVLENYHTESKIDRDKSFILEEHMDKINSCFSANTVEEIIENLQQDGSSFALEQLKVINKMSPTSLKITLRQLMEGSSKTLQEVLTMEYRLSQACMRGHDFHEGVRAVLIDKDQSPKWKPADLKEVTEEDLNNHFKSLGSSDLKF

AKR1B10 = target: T6, AKR1B10 (Homo sapiens, UniProt O60218); experiment: CCMS differential competition, HepG2 lysate, inactive capture compound CPT-220; assay type: binding; conditions: CPT-220 1 μM; for Fc: fold change assay vs competition, 50 μM competitor; for MS/MS: with 50 μM competitor, HepG2 lysate
T6 construct: performing CCMS experiments in the hepatoma-derived cell line HepG2; host or cells: HepG2 lysate

NIPSNAP3A = target: T7, NIPSNAP3A (Homo sapiens, UniProt Q9UFN0); experiment: as above; assay type: binding; conditions: CPT-220 1 μM; for Fc: fold change assay vs competition, 50 μM competitor; for MS/MS: with 50 μM competitor, HepG2 lysate
T7 construct: performing CCMS experiments in the hepatoma-derived cell line HepG2; host or cells: HepG2 lysate
T7 sequence (Q9UFN0 1-247): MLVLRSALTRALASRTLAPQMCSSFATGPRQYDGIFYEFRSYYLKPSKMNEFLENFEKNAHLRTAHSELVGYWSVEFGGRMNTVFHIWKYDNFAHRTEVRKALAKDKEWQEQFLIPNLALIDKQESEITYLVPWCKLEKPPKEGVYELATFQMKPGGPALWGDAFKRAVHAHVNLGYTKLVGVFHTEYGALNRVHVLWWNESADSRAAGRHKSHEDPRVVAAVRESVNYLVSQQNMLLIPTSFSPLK

PDXK = target: T8, PDXK (Homo sapiens, UniProt O00764); experiment: as above; assay type: binding; conditions: CPT-220 1 μM; for Fc: fold change assay vs competition, 50 μM competitor; for MS/MS: with 50 μM competitor, HepG2 lysate
T8 construct: performing CCMS experiments in the hepatoma-derived cell line HepG2; host or cells: HepG2 lysate
T8 sequence (O00764 1-312): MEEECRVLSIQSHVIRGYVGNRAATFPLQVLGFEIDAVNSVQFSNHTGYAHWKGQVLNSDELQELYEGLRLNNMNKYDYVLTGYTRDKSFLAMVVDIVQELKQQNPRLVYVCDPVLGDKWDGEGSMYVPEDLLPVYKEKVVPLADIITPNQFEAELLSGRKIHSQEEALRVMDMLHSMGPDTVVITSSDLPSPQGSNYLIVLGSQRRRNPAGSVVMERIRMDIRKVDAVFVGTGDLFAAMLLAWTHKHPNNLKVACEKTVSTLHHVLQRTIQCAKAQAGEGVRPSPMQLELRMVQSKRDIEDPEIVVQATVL

HepG2 cells [4] = experiment: Mitochondrial toxicity assessment (Glu/Gal), ATPlite / Mitochondrial ToxGlo assay; assay type: cell-based, human; conditions: for mitochondrial cytotoxicity: HepG2 cells (FIG. 7); for IC50 in galactose media compared to glucose media: ATP content, HepG2 cells
HIBCH [5] = target: T5, HIBCH; experiment: Capture assay with CPT-224 followed by anti-HIBCH / streptavidin Western Blot; assay type: binding; design: made in house; host or cells: E. coli BL21; conditions: for competition of HIBCH capturing (anti-HIBCH Western Blot): CPT-224, competitor; for competition of crosslinking of HIBCH with CPT-224 (anti-Streptavidin Western Blot): recombinant HIBCH
HepG2 cells [6] = conditions: human
COMT [7] = target: T9, COMT (Homo sapiens, UniProt P21964); experiment: CCMS differential competition and dose-dependent capturing, HepG2 lysate; assay type: binding; conditions: for Fc: fold change assay vs competition, 50 μM competitor; for Fc / MS/MS: CPT-224 1 μM; for MS/MS: with 50 μM competitor, HepG2 lysate; for competition of COMT capture, dose-dependent capturing: CPT-224 5 μM to 40 nM
T9 construct: performing CCMS experiments in the hepatoma-derived cell line HepG2; host or cells: HepG2 lysate
T9 sequence (P21964 1-271): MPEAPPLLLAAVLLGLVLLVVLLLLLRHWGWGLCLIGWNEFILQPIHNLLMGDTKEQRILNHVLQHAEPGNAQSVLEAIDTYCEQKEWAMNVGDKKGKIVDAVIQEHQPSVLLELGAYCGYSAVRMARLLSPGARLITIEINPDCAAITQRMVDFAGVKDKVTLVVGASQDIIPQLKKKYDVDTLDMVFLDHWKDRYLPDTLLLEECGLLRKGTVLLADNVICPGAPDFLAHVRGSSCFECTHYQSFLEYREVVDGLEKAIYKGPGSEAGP

[8] = in vivo; cited from earlier work
Aβ42 protofibrils = Aβ42 protofibrils (Homo sapiens, UniProt P05067); conditions: cited from earlier work
[9] = target: enoyl-acyl carrier protein reductase (InhA) (Mycobacterium tuberculosis, UniProt P9WGR1); conditions: cited from earlier work
α-synuclein monomers = α-synuclein monomers (Homo sapiens, UniProt P37840); conditions: cited from earlier work

T3 sequence (Q6YP21 whole entry): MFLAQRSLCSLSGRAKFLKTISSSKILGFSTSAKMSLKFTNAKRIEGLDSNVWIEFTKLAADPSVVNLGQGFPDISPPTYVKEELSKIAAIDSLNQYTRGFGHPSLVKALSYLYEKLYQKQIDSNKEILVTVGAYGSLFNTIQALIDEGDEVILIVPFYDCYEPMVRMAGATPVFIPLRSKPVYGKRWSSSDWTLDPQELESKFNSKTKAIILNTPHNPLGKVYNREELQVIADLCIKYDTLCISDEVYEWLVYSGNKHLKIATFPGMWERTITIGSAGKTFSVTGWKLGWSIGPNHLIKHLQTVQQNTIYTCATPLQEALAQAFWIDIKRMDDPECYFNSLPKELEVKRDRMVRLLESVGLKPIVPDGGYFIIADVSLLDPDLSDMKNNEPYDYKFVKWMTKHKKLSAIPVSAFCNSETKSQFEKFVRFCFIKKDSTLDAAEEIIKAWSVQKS
T6 sequence (O60218 whole entry): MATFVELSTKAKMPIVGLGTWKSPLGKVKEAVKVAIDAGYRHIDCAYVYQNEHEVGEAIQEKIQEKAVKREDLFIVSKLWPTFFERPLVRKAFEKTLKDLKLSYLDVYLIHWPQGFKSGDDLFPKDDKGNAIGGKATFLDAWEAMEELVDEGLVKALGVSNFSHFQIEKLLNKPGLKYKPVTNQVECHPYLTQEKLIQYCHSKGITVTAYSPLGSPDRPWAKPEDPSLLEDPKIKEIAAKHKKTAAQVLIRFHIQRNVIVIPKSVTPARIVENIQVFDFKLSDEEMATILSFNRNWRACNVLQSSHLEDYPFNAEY
enoyl-acyl carrier protein reductase (InhA), sequence (P9WGR1 whole entry, looked up): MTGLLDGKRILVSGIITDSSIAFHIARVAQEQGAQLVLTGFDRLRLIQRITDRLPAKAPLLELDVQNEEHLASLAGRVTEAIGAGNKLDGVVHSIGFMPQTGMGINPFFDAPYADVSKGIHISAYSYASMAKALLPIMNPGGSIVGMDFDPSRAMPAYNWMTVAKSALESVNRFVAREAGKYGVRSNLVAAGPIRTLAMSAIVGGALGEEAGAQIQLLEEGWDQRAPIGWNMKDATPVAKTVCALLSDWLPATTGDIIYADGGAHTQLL
Aβ42 protofibrils, sequence (P05067 672-713 limits assumed): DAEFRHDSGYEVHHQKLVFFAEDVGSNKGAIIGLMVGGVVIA

Compound | Fc (GCDH) | MS/MS (GCDH) | Fc (ADI1) | MS/MS (ADI1) | Fc (CCBL2) | MS/MS (CCBL2) | pIC50 (COMT [1]) | competition of COMT capturing (anti-COMT Western Blot) (COMT [2]) | competition of crosslinking of COMT with CPT-224 (anti-Streptavidin Western Blot) (COMT [2]) | competition of HIBCH capture (dCCMS) (HIBCH [3]) | binding to HIBCH (HIBCH [3]) | Fc (AKR1B10) | MS/MS (AKR1B10) | Fc (NIPSNAP3A) | MS/MS (NIPSNAP3A) | mitochondrial cytotoxicity (HepG2 cells [4]) | competition of crosslinking of HIBCH with CPT-224 (anti-Streptavidin Western Blot) (HIBCH [5]) | mitochondrial membrane potential (HepG2 cells [6]; 50 μM) | mitochondrial membrane potential (HepG2 cells [6]; 100 μM) | IC50 in galactose media compared to glucose media (HepG2 cells [4]) | other results
CCN1C(=O)S/C(=C\c2cc(O)c(O)c([N+](=O)[O-])c2)C1=O [CPT-212] | 6.34 | 2.3 | 4.29 | 0.3 | 3.40 | 2 | 6.75 | signals were abolished | competed | specifically competed | identified to bind | 3.1 | 0 | 3 | 0.025 | significantly higher than that of entacapone and CPT-401 (A1) | competed | 20-30 % of untreated HepG2 cells | 0-5 % of the control |  | Fc (PDXK): 24.9; MS/MS (PDXK): 3.75; competition of HIBCH capturing (anti-HIBCH Western Blot) (HIBCH [5]): capturing was abolished; Fc (COMT [7]): 10.90; MS/MS (COMT [7]): 5
CCN(CC)C(=O)c1cc2cc(O)c(O)c([N+](=O)[O-])c2cc1C(=O)N(CC)CC [CPT-401, N2,N2,N3,N3-tetraethyl-6,7-dihydroxy-5-nitro-naphthalene-2,3-dicarboxamide] | 5.90 | 2.6 | 3.67 | 0.3 | 3.05 | 2.6 | 7.27 | signals were abolished | competed | no competition was observed |  | 4.7 | 0.5 | 7.5 | 0 | low mitochondrial cytotoxicity | no competition | more than 50 % of untreated HepG2 cells | 40-50 % of the control | much less than for CPT-212 (B1) | Fc (PDXK): 16; MS/MS (PDXK): 0; competition of COMT capture, dose-dependent capturing (COMT [7]): complete competition; Fc (COMT [7]): 34.2; MS/MS (COMT [7]): 3
CCN(CC)C(=O)/C(C#N)=C/c1cc(O)c(O)c([N+](=O)[O-])c1 [entacapone, reference compound] |  |  |  |  |  |  |  |  |  |  |  |  |  |  |  |  |  | more than 50 % of untreated HepG2 cells | 40-50 % of the control | a much smaller effect | toxicity [8]: more favorable toxicity profile
Cc1ccc(C(=O)c2cc(O)c(O)c([N+](=O)[O-])c2)cc1 [tolcapone, reference compound] |  |  |  |  |  |  |  |  |  | specifically identified when tolcapone was used as competitor | identified to bind |  |  |  |  | mitochondrial toxicant; also recorded: significantly higher than that of entacapone and CPT-401 (A1) | competed | 20-30 % of untreated HepG2 cells | 0-5 % of the control | > 4 fold | toxicity [8]: severe hepatotoxicity in several cases; inhibition of aggregation of Aβ42 protofibrils to mature amyloid fibrils (Aβ42 protofibrils): inhibit the aggregation of Aβ42 protofibrils to mature amyloid fibrils; competition of HIBCH capture, dose-dependent capturing (HIBCH [3]; CPT-224 5 μM to 40 nM): competed only with tolcapone; binding and inhibition of InhA [9]: bind and inhibit; inhibition of aggregation of α-synuclein monomers (α-synuclein monomers): inhibit aggregation of α-synuclein monomers; competition of HIBCH capturing (anti-HIBCH Western Blot) (HIBCH [5]): capturing was abolished; competition of COMT capture, dose-dependent capturing (COMT [7]): complete competition
